Laboratory results reported in patent publication US20040106663A1, “Inhibitors of fungal invasion” (priority 2002, published 2004).
Values joined by “and” are separate entries in the source; they are usually repeats but may differ in a detail not shown here. Equal entries are not always repeated. Marks after values point to notes of the source that are not given here.

Experiments:
C. albicans = C. albicans overnight growth inhibition; format: cell-based, Candida albicans; design: concentration or dose not given beside the values
C. albicans (MC303) = assay: C. albicans morphology assay (hyphae scored 1-5); conditions: invasion morphology phenotype, test compound at 10 μM, scale 1-5
Experimental: In this assay, described in greater detail below, the morphology of cells was assessed and scored on a 1-5 scale. A score of 1 was assigned to non-hyphal cells, “yeast-like” cells and budding cells, and a score of 5 was assigned to cells having many, relatively long (wild-type) hyphae.
A frozen stock culture was prepared by streaking C. albicans (MC303: ura3 Δ:: imm434/ura3Δ:: imm434 arg4::hisG/arg4::hisG ade2:: URA3:.pTEF1-lacZ/ADE2 hisl::hisG/HIS1 gal1::ARG4/GAL1) cells on a YPD agar plate and grown at 30° C. for 14-18 h. An isolated colony was added to 5 mL of YPD broth and grown on a roller drum (60 rpm) for 14-18 h at 30° C. Next, 600 μL of culture were aliquotted into 1 mL of 25% glycerol, and the tubes are stored at −80° C.
Frozen MC303 C. albicans cell stock was struck for isolation of a single colony using a sterile loop on a YPD agar plate and grown at 30° C. for 14-18 h. A single colony was inoculated into 5 mL of YPD in a test tube and grown on a roller drum (60 rpm) for 2 days at 30° C. to late stationary phase (OD600˜30). For the assay, this stock was diluted to 2.5×10^5 cells/mL to make a 10× stock. Next, 10 μL of this cell stock was added to 80 μL of Inducing Media and 10 μL of 10× compound stock or DMSO in a Coming, tissue-culture treated, flat-bottom, microtiter plate. The plate was incubated at 37° C. for 24 h. Next, 10 μL of formaldehyde (37%) was added to each well and the cells were fixed for 10 min. The liquid was gently decanted from the plate and each well was examined under a microscope. Each well was photographed and observed cells are scored on a scale of 1-5. […] A 1 indicates cells are non-hyphal with only “yeast-like” cells and budding cells.
Scores of 2, 3, and 4 indicate shorter length or reduced quantity of hyphae when compared with WT (2 being very near non-hyphal and 4 being close to WT).

[1] = tested on: stationary phase C. albicans (MC295) containing HWP1-lacZ; assay: microbe, parasite or virus in culture; format: cell-based, Candida albicans; conditions: Candida albicans, read-out: C. albicans STAT IC50, stationary phase growth invasion assay
[2] = tested on: logarithmic phase C. albicans (MC295) containing HWP1-lacZ; assay: microbe, parasite or virus in culture; format: cell-based; conditions: Candida albicans, read-out: C. albicans LOG IC50, logarithmic phase growth invasion assay (converted)
[3] = tested on: HepG2 human hepatoma cells; conditions: 4 h
Experimental: Mammalian Cell Toxicity Assay
To investigate the toxicity of Compound I for mammalian cells, human hepatoma cell line HepG2 were exposed to Compound I and the (LD50) was determined. Briefly, HepG2 human hepatoma cells (American Type Culture Collection, Bethesda Md.) were plated at 1×10^5 cells/well in tissue culture treated 96 well plates and incubated at 5% CO2, 37° C. for 18 h prior to initiation of the assay. The compound stocks at 100 mM in DMSO were added to DM (defined media, media without serum with added insulin, selenium and transferrin) at an initial concentration of 1000 μM and serially diluted 1 to 3 in DM in a 96 well plate. For 20 μL of a test solution, 3.5 μL sample is added to 346.5 μL media for an initial concentration of 1000 μM. These dilutions are added to the cells at final sample concentrations between 0.5 and 1000 μM (<1% DMSO). Controls included: media only (negative control) and 0.1% Triton-X (positive control). Control drugs (tamoxifen and 2-thiouracil) were also used to verify each assay. The samples were incubated at 37° C. in humidified 5% CO2 atmosphere for 4 h.
The plate was read directly on the Tecan Spectrafluor Plus reader in the fluorescent mode at excitation 530 nm and emission 595 nm. The blank was subtracted from the total fluorescence to give the net fluorescence for that well. This total was compared to the control in the absence of the compound. An LD50 (concentration at 50% of lethal dose) is calculated as the concentration that leads to a response of 50% compared to the control cells. Thus, cytotoxicity is measured as percent of inhibition of cell viability as determined by the Alamar Blue assay.

CCCCc1ccc(S(=O)(=O)Nc2ccon2)cc1
C. albicans Overnight Growth Inhibition (C. albicans): 18.3% | C. albicans Phenotype Rating (C. albicans (MC303)): 5 | IC50 [1]: 17400 nM | IC50 [2]: 1420 nM

CCCCC(F)(F)c1ccc(S(=O)(=O)Nc2cc(C)on2)cc1
C. albicans Overnight Growth Inhibition (C. albicans): −1.6% | C. albicans Phenotype Rating (C. albicans (MC303)): 5 | IC50 [1]: > 20000 nM | IC50 [2]: 2020 nM

CCCCCc1ccc(S(=O)(=O)Nc2cc(C)on2)cc1
C. albicans Overnight Growth Inhibition (C. albicans): −49.4% | C. albicans Phenotype Rating (C. albicans (MC303)): 4 | IC50 [1]: 1410 nM | IC50 [2]: 9.28 nM

CCCCc1ccc(S(=O)(=O)Nc2cc(C)on2)cc1 [drawing 232]
C. albicans Overnight Growth Inhibition (C. albicans): 19.4% | AFDD Mammalian Cytotoxicity LD50 [3]: >1000 µM | IC50 [1]: 898 nM | IC50 [2]: 6.03 nM

Cc1cc(NS(=O)(=O)c2ccc(-c3cc4ccccc4s3)cc2)no1
C. albicans Overnight Growth Inhibition (C. albicans): −1.8% | C. albicans Phenotype Rating (C. albicans (MC303)): 4 and 5 | IC50 [1]: > 20000 nM | IC50 [2]: 1760 nM

Cc1cc(NS(=O)(=O)c2ccc(N3CCCC3)cc2)no1
C. albicans Overnight Growth Inhibition (C. albicans): 4.4% | C. albicans Phenotype Rating (C. albicans (MC303)): 4 and 5 | IC50 [1]: 3730 nM | IC50 [2]: 91 nM

Cc1cc(NS(=O)(=O)c2ccc(-c3cc(Cl)cc(Cl)c3)cc2)no1
C. albicans Overnight Growth Inhibition (C. albicans): −3.1% | C. albicans Phenotype Rating (C. albicans (MC303)): 5 | IC50 [1]: > 20000 nM | IC50 [2]: 1480 nM

Cc1cc(NS(=O)(=O)c2ccc(-c3cc4ccccc4o3)cc2)no1
C. albicans Overnight Growth Inhibition (C. albicans): 23.8% | C. albicans Phenotype Rating (C. albicans (MC303)): 2* | IC50 [1]: 2610 nM | IC50 [2]: 320 nM

Cc1cc(NS(=O)(=O)c2ccc(C3CCCC3)cc2)no1
C. albicans Overnight Growth Inhibition (C. albicans): 13.9% | C. albicans Phenotype Rating (C. albicans (MC303)): 5 | IC50 [1]: 19800 nM | IC50 [2]: 110 nM

Cc1cc(NS(=O)(=O)c2ccc(-n3cccn3)cc2)no1
C. albicans Overnight Growth Inhibition (C. albicans): −13.3% | C. albicans Phenotype Rating (C. albicans (MC303)): 5 | IC50 [1]: > 20000 nM | IC50 [2]: 2100 nM

Cc1cc(NS(=O)(=O)c2ccc(-c3ccc(F)c(F)c3)cc2)no1
C. albicans Overnight Growth Inhibition (C. albicans): 8.8% | C. albicans Phenotype Rating (C. albicans (MC303)): 5 | IC50 [1]: > 20000 nM | IC50 [2]: 1100 nM

Cc1ccc(-c2ccc(S(=O)(=O)Nc3cc(C)on3)cc2)cc1
C. albicans Overnight Growth Inhibition (C. albicans): 12.3% | AFDD Mammalian Cytotoxicity LD50 [3]: >1000 µM | IC50 [1]: > 20000 nM | IC50 [2]: 41 nM

Cc1cc(NS(=O)(=O)c2ccc3ccccc3c2)no1
C. albicans Overnight Growth Inhibition (C. albicans): −14.7% | C. albicans Phenotype Rating (C. albicans (MC303)): 5 | IC50 [1]: > 20000 nM | IC50 [2]: 2260 nM

Cc1cc(NS(=O)(=O)c2ccc(-c3ccc(F)cc3F)s2)no1
C. albicans Overnight Growth Inhibition (C. albicans): −0.6% | C. albicans Phenotype Rating (C. albicans (MC303)): 5 | IC50 [1]: > 20000 nM | IC50 [2]: 3360 nM

Cc1cc(NS(=O)(=O)c2ccc(-c3cccc(Cl)c3Cl)cc2)no1
C. albicans Overnight Growth Inhibition (C. albicans): −0.3% | C. albicans Phenotype Rating (C. albicans (MC303)): 5 | IC50 [1]: > 20000 nM | IC50 [2]: 3010 nM

Cc1cc(NS(=O)(=O)c2ccc(-c3cccc(Cl)c3)cc2)no1
C. albicans Overnight Growth Inhibition (C. albicans): 7.7% | C. albicans Phenotype Rating (C. albicans (MC303)): 5 | IC50 [1]: > 20000 nM | IC50 [2]: 110 nM

CCCN(CCC)c1ccc(S(=O)(=O)Nc2cc(C)on2)cc1
C. albicans Overnight Growth Inhibition (C. albicans): −2.8% | C. albicans Phenotype Rating (C. albicans (MC303)): 5 | IC50 [1]: > 20000 nM | IC50 [2]: 2790 nM

Cc1cc(NS(=O)(=O)c2ccc(-c3sccc3C)cc2)no1
C. albicans Overnight Growth Inhibition (C. albicans): 11.5% | C. albicans Phenotype Rating (C. albicans (MC303)): 5 | IC50 [1]: > 20000 nM | IC50 [2]: 320 nM

Cc1cc(NS(=O)(=O)c2ccc(OCC3CC3)cc2)no1
C. albicans Overnight Growth Inhibition (C. albicans): −7.3% | C. albicans Phenotype Rating (C. albicans (MC303)): 5 | IC50 [1]: 11500 nM | IC50 [2]: 51 nM

Cc1cc(NS(=O)(=O)c2ccc(OC(C)C)cc2)no1
C. albicans Overnight Growth Inhibition (C. albicans): 0.8% | C. albicans Phenotype Rating (C. albicans (MC303)): 5 | IC50 [1]: > 20000 nM | IC50 [2]: 3600 nM

Cc1cc(NS(=O)(=O)c2ccc(-c3ccc(F)c(C)c3)cc2)no1
C. albicans Overnight Growth Inhibition (C. albicans): 2.6% | AFDD Mammalian Cytotoxicity LD50 [3]: 601.4 µM | IC50 [2]: 116 nM

Cc1cc(NS(=O)(=O)c2ccc(-c3ccc(F)c(Cl)c3)cc2)no1
C. albicans Overnight Growth Inhibition (C. albicans): 18.6% | C. albicans Phenotype Rating (C. albicans (MC303)): 5 | IC50 [1]: > 20000 nM | IC50 [2]: 192 nM

Cc1cc(NS(=O)(=O)c2ccc(-c3ccccc3C)cc2)no1
C. albicans Overnight Growth Inhibition (C. albicans): 4.8% | C. albicans Phenotype Rating (C. albicans (MC303)): 5 | IC50 [1]: > 20000 nM | IC50 [2]: 56 nM

Cc1cc(NS(=O)(=O)c2ccc(Oc3ccccc3)cc2)no1
C. albicans Overnight Growth Inhibition (C. albicans): 4.4% | C. albicans Phenotype Rating (C. albicans (MC303)): 5 | IC50 [1]: > 20000 nM | IC50 [2]: 5210 nM

CCCCc1cc(F)c(S(=O)(=O)Nc2cc(C)on2)cc1F
C. albicans Overnight Growth Inhibition (C. albicans): −14.5% | C. albicans Phenotype Rating (C. albicans (MC303)): 5 | IC50 [1]: > 20000 nM | IC50 [2]: 87 nM

Cc1cc(NS(=O)(=O)c2ccc(-c3ccccc3F)cc2)no1
C. albicans Overnight Growth Inhibition (C. albicans): −4.3% | C. albicans Phenotype Rating (C. albicans (MC303)): 5 | IC50 [1]: > 20000 nM | IC50 [2]: 350 nM

Cc1cc(NS(=O)(=O)c2ccc(-c3nccs3)cc2)no1
C. albicans Overnight Growth Inhibition (C. albicans): 32.7% | C. albicans Phenotype Rating (C. albicans (MC303)): 3 and 5 | IC50 [1]: > 20000 nM | IC50 [2]: 2800 nM

CCc1ccc(-c2ccc(S(=O)(=O)Nc3cc(C)on3)cc2)cc1
C. albicans Overnight Growth Inhibition (C. albicans): −14.4% | C. albicans Phenotype Rating (C. albicans (MC303)): 5 | IC50 [1]: > 20000 nM | IC50 [2]: 115 nM

CCCSCc1ccc(S(=O)(=O)Nc2cc(C)on2)cc1
C. albicans Overnight Growth Inhibition (C. albicans): −21.3% | C. albicans Phenotype Rating (C. albicans (MC303)): 5 | IC50 [1]: > 20000 nM | IC50 [2]: 656 nM

Cc1cc(NC(=O)Nc2ccc(S(=O)(=O)Nc3cc(C)on3)cc2)no1
C. albicans Overnight Growth Inhibition (C. albicans): −25.4% | C. albicans Phenotype Rating (C. albicans (MC303)): 5 | IC50 [1]: > 20000 nM | IC50 [2]: 5160 nM

Cc1cc(NS(=O)(=O)c2ccc(-c3ccc(F)cc3)cc2)no1
C. albicans Overnight Growth Inhibition (C. albicans): 12.7% | AFDD Mammalian Cytotoxicity LD50 [3]: 983.2 µM | IC50 [2]: 294 nM

Cc1cc(NS(=O)(=O)c2ccc(-c3ccc4c(c3)OCO4)cc2)no1
AFDD Mammalian Cytotoxicity LD50 [3]: >1000 µM | IC50 [1]: > 20000 nM | IC50 [2]: 674 nM

Cc1cc(NS(=O)(=O)c2ccc(-c3ccc(C)s3)cc2)no1
C. albicans Overnight Growth Inhibition (C. albicans): 22.4% | IC50 [1]: 4900 nM | IC50 [2]: 50 nM

Cc1cc(NS(=O)(=O)c2ccc(-c3ccc(F)cc3F)cc2)no1 [drawing 258]
C. albicans Overnight Growth Inhibition (C. albicans): −3.6% | AFDD Mammalian Cytotoxicity LD50 [3]: >1000 µM

Cc1cc(NS(=O)(=O)c2ccc(CCCCCCCCCCO)cc2)no1
C. albicans Overnight Growth Inhibition (C. albicans): 71.0% | C. albicans Phenotype Rating (C. albicans (MC303)): 5 | IC50 [1]: > 20000 nM | IC50 [2]: 17300 nM

Cc1cc(NS(=O)(=O)c2ccc(CC3C4CCC(C4)C3(C)C)cc2)no1 (stereo not drawn)
C. albicans Overnight Growth Inhibition (C. albicans): −0.6% | C. albicans Phenotype Rating (C. albicans (MC303)): 5 | IC50 [1]: > 20000 nM | IC50 [2]: 18000 nM
